Entries after “also recorded” stand apart in the source; their conditions may differ.
Assays:
[1] = system: purified porcine calpain 2; test: Calpain-Glo Protease Assay; assay type: biochemical; conditions: 5 mM CaCl2, 10 min, room temperature; mean of two experiments
Source text: The porcine kidney was obtained from DART Co., Ltd. as part of a program aimed at the effective utilization of livestock by-products in Hokkaido, Japan. The procurement process followed ethical guidelines from Livestock Industry Bureau MAFF-J (ministry of agriculture, forestry and fisheries of Japan) for farm animal use, ensuring compliance with relevant regulations. Two porcine kidneys were rapidly frozen after removal, trimmed free of excess tissue or renal pelvis, and cut into small pieces (approximately 2 × 2 cm) before they thawed. About 250 g of these pieces were homogenized in 1200 mL of ice-cold 20 mM Tris-HCl (pH 8.0) with 5 mM ethylenediaminetetraacetic acid (EDTA), 0.1% 2-mercaptoethanol (2-ME), 0.1 mg/mL Pefabloc SC (MilliporeSigma, Burlington, MA, USA), 40 µg/mL bestatin, and 4 µg/mL pepstatin in a Waring blender HGBSS (Waring; Stamford, CT, USA) at 19,000 rpm using several bursts of 10 sec each with 20 sec cooling periods between each burst. The homogenate was centrifuged at 25,000 × g for 15 min at 4°C, and the supernatant was filtered through glass wool and a 5 µm filter (Merck) to remove floating lipids. The purification procedure was performed according to the method of Thompson and Goll with some minor modifications: the DEAE-cellulose and the DEAE-TSK ToyoPearl 650S columns were substituted with DEAE sepharose fast flow (Merck) and TSKgel DEAE-5PW (30) (Tosoh; Tokyo, Japan) columns, respectively. After purification, calpain-2 was dialyzed, and glycerol was added for freeze-thaw protection. The final buffer formulation was 20 mM imidazole, 5 mM 2-ME, 1 mM EDTA, 1 mM EGTA, and 20% glycerol.
(§1) For measurement of inhibitory activities against calpains in vitro, Calpain-Glo Protease Assay (Promega; Madison, WI, USA) was performed using human erythrocyte calpain 1 (MilliporeSigma) and purified porcine calpain 2. Briefly, 24 µL of each calpain diluted with 20 mM Tris-HCl (pH 7.4), 1 µL of each inhibitor, and 25 µL of reaction buffer including CaCl2 in a 96-well plate was incubated for 10 min at room temperature. The final concentration of CaCl2 in the reaction solution was 5 mM. The luminescence was measured using a microplate reader (GloMax Discover System; Promega). IC50 values from two independent experiments were averaged.

[2] = biological target: T1, human erythrocyte calpain 1 (Homo sapiens, UniProt P07384); test: Calpain-Glo Protease Assay; assay type: biochemical; conditions: 5 mM CaCl2, 10 min, room temperature; mean of two experiments
T1 construct: human erythrocyte calpain 1 (MilliporeSigma); purchased MilliporeSigma; host or cells: human erythrocytes
T1 sequence (P07384 1-714): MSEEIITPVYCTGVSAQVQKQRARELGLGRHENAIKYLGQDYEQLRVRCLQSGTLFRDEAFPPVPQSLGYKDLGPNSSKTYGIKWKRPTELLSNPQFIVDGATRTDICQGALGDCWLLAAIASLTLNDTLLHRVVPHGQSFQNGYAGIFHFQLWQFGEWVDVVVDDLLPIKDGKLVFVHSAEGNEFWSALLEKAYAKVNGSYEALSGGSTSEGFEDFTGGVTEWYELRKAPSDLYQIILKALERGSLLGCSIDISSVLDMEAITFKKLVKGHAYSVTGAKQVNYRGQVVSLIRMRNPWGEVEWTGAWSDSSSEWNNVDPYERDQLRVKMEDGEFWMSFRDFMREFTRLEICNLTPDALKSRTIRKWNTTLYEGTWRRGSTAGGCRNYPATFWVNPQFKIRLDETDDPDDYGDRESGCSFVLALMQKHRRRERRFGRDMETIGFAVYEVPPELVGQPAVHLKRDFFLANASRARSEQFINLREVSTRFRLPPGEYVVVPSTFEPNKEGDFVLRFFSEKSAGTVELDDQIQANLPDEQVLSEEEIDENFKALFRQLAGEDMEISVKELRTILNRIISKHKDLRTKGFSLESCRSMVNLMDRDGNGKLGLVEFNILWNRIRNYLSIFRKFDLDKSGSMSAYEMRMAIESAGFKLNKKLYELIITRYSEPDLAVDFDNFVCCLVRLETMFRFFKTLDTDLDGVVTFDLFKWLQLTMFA
T1 sequence (P04632 1-268 partner): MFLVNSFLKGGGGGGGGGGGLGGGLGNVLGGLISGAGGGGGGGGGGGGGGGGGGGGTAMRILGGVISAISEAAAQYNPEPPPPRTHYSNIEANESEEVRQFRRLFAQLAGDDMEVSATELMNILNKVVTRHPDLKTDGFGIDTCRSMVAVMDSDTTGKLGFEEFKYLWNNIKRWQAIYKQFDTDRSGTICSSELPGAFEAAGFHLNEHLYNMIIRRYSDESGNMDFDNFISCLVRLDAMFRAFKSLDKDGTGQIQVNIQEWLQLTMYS
Procedure: as §1

[3] = system: calpains 1 and 2 in monkey retinal lysate; test: In vitro inhibitory assay of calpains from retinal lysate (CaCl2, immunoblotting); assay type: biochemical; conditions: non-cultured monkey retina lysate, 10 mM CaCl2, 2 hr, 37°C; inhibitor at 1, 10 and 100 µM
Procedure: (§2) Each retinal explant was sonicated in RIPA Lysis and Extraction Buffer (Thermo Fisher Scientific), with protease inhibitors cocktail (Complete Mini-EDTA-free; MilliporeSigma). Protein concentrations in lysates were measured by BCA assay (Pierce BCA Protein Assay Kit, Thermo Fisher Scientific) using bovine serum albumin as a standard. For immunoblotting, 5 μg of each sample was loaded and run on 4% to 12% gradient or 10% SDS-PAGE gels (NuPAGE Bis-Tris Protein Gels, Thermo Fisher Scientific) with 2-(N-morpholino)ethanesulfonic acid buffer or 3-(N-morpholino) propanesulfonic acid buffer (Thermo Fisher Scientific). Proteins were then electrotransferred to a polyvinylidene fluoride membrane (MilliporeSigma) at 100 V for 60 min or 1.5 hr. Membranes were then blocked with 5% skim milk in Tris-buffer saline (Bio-Rad Laboratories, Hercules, CA, USA) containing 0.05% Tween 20. Each membrane was probed with primary antibodies against α-spectrin (1:2000 dilution, Enzo Life Sciences, Farmingdale, NY, USA), SBDP150 (1:1000 dilution, Senju Pharmaceutical), calpain 1 (1:1000 dilution, Thermo Fisher Scientific), calpain 2 (1:500, GeneTex, Irvine, CA, USA), cathepsin K (1:500 dilution, Abcam), and β-actin (1:1000 dilution, Merck). For calpain 1, immunoreactivity was visualized using a secondary antibody conjugated to alkaline phosphatase and the AP Conjugate Substrate Kit (Bio-Rad Laboratories). For other proteins, immunoreactivities were visualized using secondary antibodies conjugated with rabbit (Santa Cruz Biotechnology) or mouse horseradish peroxidase enzyme (Cytiva, Wilmington, DE, USA) and ECL Plus detection reagents (Cytiva). Images of the membranes were captured with FluorChem FC2 imager (Cell Biosciences, Santa Clara, CA, USA). The conversion of pro-cathepsin K (38 kDa) to its mature form (27 kDa) was used as an indicator of cathepsin K activation.
To confirm the isozyme specificities of calpain inhibitors in vitro, non-cultured monkey retinas were sonicated in a buffer containing 20 mM Tris (pH 7.5), 5 mM EGTA, 5 mM EDTA, 2 mM DTE. […]

[4] = system: calpain 1 activation and proteolysis of α-spectrin; test: Immunoblotting of retinal explants under hypoxia/reoxygenation; assay type: cell-based, rhesus macaques (Macaca mulatta); conditions: H16R8; BAPTA 3 or 10 mM, BAPTA-AM 0.1 or 0.5 mM
Procedure: (§3) Retina explant culture was performed as described in our previous report, except for the induction of hypoxia. Briefly, a hypoxic chamber (Coy Laboratory Products, Grass Lake, MI, USA) was controlled at 0.3% oxygen with a 95% N2/5% CO2 gas mixture. Retinas were dissected into fan-shaped explants with 6 or 7 petals (> 5 mm) in HBSS. Each explant was placed with the RGC side facing up on a Millicell organotypic standing insert (0.4 μm, 30 mm diameter, MilliporeSigma) in six-well, culture plates. They were cultured for 2 hr at 37°C under 95% N2/5% CO2 in Neurobasal-A medium supplemented with B27, N2 supplements, 2 mM L-glutamine (Thermo Fisher Scientific, Waltham, MA, USA), and 100 μg/mL primocin (Invivogen, San Diego, CA, USA). Retinal explants were then chamber-cultured under hypoxic conditions for 16 hr in a culture medium with 0.5 mM glucose, under 0.3% oxygen. The retinas were then re-oxygenated for 8 hr in a culture medium with 5.5 mM glucose. Normoxic control retinas were cultured for 24 hr in a culture medium with 5.5 mM glucose. When present, calpain inhibitors (SNJ-1945, PD-151746, C2I, and ABT-957) and cathepsin inhibitors (Odanacatib and SID26681509) in 0.1% DMSO were used at the final concentration of 10 or 100 μM in the medium. BAPTA (Thermo Fisher Scientific) and BAPTA-AM (Thermo Fisher Scientific) were also used at a final concentration of 3 or 10 mM or a final concentration of 100 or 500 μM, respectively.
(§4) All inhibitors and BAPTA were treated simultaneously with hypoxia induction, and BAPTA-AM treatment was 2 hr before hypoxia induction.
as §2

[5] = system: RGCs in monkey retinal explants; test: PI staining and RGC counting in retinal explants under hypoxia/reoxygenation; assay type: cell-based, rhesus macaques (Macaca mulatta); conditions: H16R8; calcium chelator at higher concentration (BAPTA 10 mM; BAPTA-AM 0.5 mM, 2 hr before hypoxia)
Source text: Globes were obtained from rhesus macaques (Macaca mulatta) at 1–7 years of age from the Oregon National Primate Research Center (Beaverton, OR, USA). The wide range of ages was unavoidable because they became available from experiments that were unrelated to the present studies. These eyes were acceptable for the purpose of our experiments. The eyes were dissected within 5 hr after death, and excised eyes were soaked in cold Hanks’ balanced salt solution (HBSS; Corning, NY, USA) or Dulbecco’s phosphate-buffered saline (DPBS; Corning). Experimental animals were handled in accordance with the Research in Vision and Ophthalmology Statement for the Use of Animals in Ophthalmic and Vision Research and with the Guiding Principles in the Care and Use of Animals (Department of Health Education and Welfare Publication National Institutes of Health 80−23).
as §3, §4
To assess the disruption of membrane barrier function, propidium iodide (PI) was utilized. Following hypoxia/reoxygenation treatment, retinal explants were incubated for 20 min in a medium containing a final concentration of 2 μg/ml of PI. For quantitative analysis, the RGC marker, RNA-binding protein with multiple splicing (RBPMS) was used at a 1:100 dilution (PhosphoSolutions, Aurora, CO, USA). RBPMS-positive and PI-positive cells in the ganglion cell layer were counted in 2 images from 2 square areas (775 × 775 μm each) located 3–5 mm and 5–7 mm away from the tips of the fan-shaped retinal flat mounts. The percentage of PI-positive RGCs was calculated as [the number of PI and RBPMS-double positive cells/the number of all RBPMS-positive cells] × 100.

[6] = system: calpain-specific SBDP150 in nerve fiber layer (NFL); test: SBDP150 immunostaining of flat-mounted retinal explants under hypoxia/reoxygenation; assay type: cell-based, rhesus macaques (Macaca mulatta); conditions: H16R8
Procedure: as §3, §4
Formalin-fixed retinal explants were incubated overnight at −30°C in 1: 4 dilutions of DMSO-ethanol to promote antibody penetration. The explants underwent two cycles of freezing and thawing between −80°C and room temperature in 100% ethanol for 20 min. The retinas were then rehydrated in 70%, 50%, and 15% ethanol and PBS for 20 min each, followed by overnight incubation with 0.2% Triton X-100. The samples were stained with antibodies specific for calpain-specific SBDP150 [8] (1:100 dilution, Senju Pharmaceutical) and β-III tubulin (a neuron marker, 1:500 dilution, Merck). The nerve fiber layer (NFL) was observed approximately 5 mm from the tips of the fan-shaped retinal flat mounts. Confocal images were taken using a model LSM 880 spectral confocal system with a 20x 0.8 NA lens (Carl Zeiss, Oberkochen, Germany).

Row | SMILES | IC50 [1] [nM] | IC50 [2] [nM] | Effect on calcium-induced activation (autolysis) of calpains 1 and 2 and SBDP150 in retinal lysate [3] | Effect on activation of calpain 1 and proteolysis of α-spectrin (immunoblot) [4] | Effect on RGC damage (PI-positive RGCs) [5] | Effect on SBDP150 staining in NFL ([6]; BAPTA-AM 500 μM) | Effect on SBDP150 staining in NFL ([6]; BAPTA at lower concentration (3 mM))
1 | O=C(NC1CC1)C(=O)C(Cc1ccccc1)NC(=O)[C@H]1CCC(=O)N1Cc1ccccc1 (stereo partly drawn) [ABT-957] | 429 | 403 | inhibited the activation of both calpain 1 and calpain 2 in a dose-dependent manner |  |  |  | 
2 | CC(=O)OCOC(=O)CN(CC(=O)OCOC(C)=O)c1ccccc1OCCOc1ccccc1N(CC(=O)OCOC(C)=O)CC(=O)OCOC(C)=O [BAPTA-AM] |  |  |  | mitigated | partial | inhibited the increase in SBDP150 staining | 
3 | O=C(O)CN(CC(=O)O)c1ccccc1OCCOc1ccccc1N(CC(=O)O)CC(=O)O [BAPTA] |  |  |  | mitigated; also recorded: inhibited the autolytic activation of calpain 1 | almost completely inhibited |  | reduced SBDP150 staining
4 | O=C(O)/C(S)=C/c1c[nH]c2ccc(F)cc12 [PD-151746] | 249 | 150 | also inhibited calpain activation, but not as strongly as SNJ-1945 and ABT-957 |  |  |  | 
